In article PMC4899609, “Spectroscopic and Docking Studies on the Binding of Liquiritigenin with Hyaluronidase for Antiallergic Mechanism” (Scientifica, 2016):

Tests used:
[1] = biological target: T1, Hyaluronidase (HAase); assay: modified Morgan-Elson colorimetric assay (DMAB, […] nm); format: biochemical; conditions: hyaluronic acid sodium 0.5 mg mL^−1; HAase 500 U mL^−1; CaCl2 12.5 mM; 37 °C
T1 construct: gene SPAM1; ovine testis or bacterial possible; human HYAL1 2PE4 was only the docking model

[2] = test system: T1, Hyaluronidase (HAase); assay: intrinsic fluorescence quenching, excitation […] nm; format: binding; conditions: 293 K; sodium phosphate buffer pH 7.4; HAase 2.0 × 10^−6 mol L^−1; n 1.0623; double-log

IC50 [1]: 680 ± 43 µM
K a [2]: 39537 L/mol
SMILES: O=C1C[C@@H](c2ccc(O)cc2)Oc2cc(O)ccc21 [liquiritigenin]
